Measurements taken from patent EP2924040A1, “2-Amino-1-(o-tolyl)pyrrolo[3,2-b]quinoxaline-3-carboxamide derivates” (Universität Zürich, priority 2014, dated 2015).

Assays:
EphB4 = molecular target: T1, EphB4 (Homo sapiens, UniProt P54760); assay: FRET based enzymatic assay (Z'-LYTE Kinase Assay Kit-Tyr 1 Peptide); assay type: biochemical; conditions: EphB4 25 ng/µL, ATP 125 µM, room temperature, 2 h
T1 sequence (P54760 16-987): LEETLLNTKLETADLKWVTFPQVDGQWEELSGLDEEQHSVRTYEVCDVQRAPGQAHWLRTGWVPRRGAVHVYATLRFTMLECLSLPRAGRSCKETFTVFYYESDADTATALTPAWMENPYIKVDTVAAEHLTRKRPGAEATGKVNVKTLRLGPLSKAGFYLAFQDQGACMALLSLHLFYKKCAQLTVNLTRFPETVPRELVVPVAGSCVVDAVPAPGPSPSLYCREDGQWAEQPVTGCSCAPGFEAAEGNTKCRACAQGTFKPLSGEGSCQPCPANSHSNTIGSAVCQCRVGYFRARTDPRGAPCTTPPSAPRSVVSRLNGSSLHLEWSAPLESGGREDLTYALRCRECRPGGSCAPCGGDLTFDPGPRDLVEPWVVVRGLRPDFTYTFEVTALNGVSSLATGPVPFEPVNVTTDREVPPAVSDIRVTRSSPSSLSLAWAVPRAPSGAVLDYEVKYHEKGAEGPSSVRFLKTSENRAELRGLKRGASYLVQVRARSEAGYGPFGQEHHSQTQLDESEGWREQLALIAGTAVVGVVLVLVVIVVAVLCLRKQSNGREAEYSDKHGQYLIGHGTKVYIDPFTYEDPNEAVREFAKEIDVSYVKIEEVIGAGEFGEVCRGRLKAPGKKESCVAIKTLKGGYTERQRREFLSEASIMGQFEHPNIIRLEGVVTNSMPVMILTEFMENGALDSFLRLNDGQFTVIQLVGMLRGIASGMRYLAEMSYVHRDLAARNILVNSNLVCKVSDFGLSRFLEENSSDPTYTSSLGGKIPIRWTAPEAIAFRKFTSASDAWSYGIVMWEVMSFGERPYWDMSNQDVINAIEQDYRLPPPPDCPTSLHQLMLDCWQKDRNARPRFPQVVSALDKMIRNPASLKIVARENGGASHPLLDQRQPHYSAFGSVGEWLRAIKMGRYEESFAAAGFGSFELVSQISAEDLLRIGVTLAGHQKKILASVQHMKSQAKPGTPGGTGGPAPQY
Experimental: Selected compounds were tested in the Z'-LYTE™ Kinase Assay Kit-Tyr 1 Peptide (Invitrogen, USA) in a Corning 384 well microtiter plate. Fluorescence progress curves were measured upon excitation at 400 nm and emission at 445 and 520 nm.

A498 = assay: Cell culture and GI50 determination (resazurin); assay type: cell-based; conditions: Homo sapiens, A498, 48h incubation
Experimental: (§1) MDA-MB-231 (breast cancer) and KM12 (colon cancer) cells obtained from the UZH Cancer Institute, HOP-92 (lung cancer) cells purchased from the National Cancer Institute (NCl) and A498 (kidney cancer) cells obtained from Prof. Krek (Institute of Cell Biology, ETH Zurich) were cultured in Dulbecco's modified Eagle's medium (DMEM) supplemented with 10% (v/v) fetal bovine serum. K562 leukemia cells obtained from Dr. Silvio Hemmi (Institute of Molecular Life Sciences, UZH) were cultured using RPMI medium supplemented with 5% (v/v) fetal bovine serum. All the media was additionally supplemented with 100 units/mL of penicillin, 100µg/mL of streptomycin, 4.5 g/L glucose, 0.11g/L sodium pyrubate and 2mM glutamine and the cells were grown at 37 °C in 5% CO2 atmosphere with 80% relative humidity.
(§2) MDA-MB-231, HT-29, KM12, HOP-92 and A498 cells were plated at 10,000 cells per well (100 µL per well) in 96-well culture dishes and allowed to incubate for 24 h. The old media was removed, the cells were washed with PBS (phosphate-buffered saline) and fresh media was added. A 5 mmol/L solution of inhibitor (in 100% DMSO) was serially diluted in the culture media (12 different concentrations were used) and allowed to incubate for 72 h (MDA-MB-231) or 48h (A498). Control cells were treated with the same DMSO concentrations. After the incubation period the media was once more removed and the cells were washed with PBS to then be incubated with fresh media containing 86 nmol/L resazurin. After 3 hours, the fluorescence was quantified using a fluorescence microplate reader (Biotek, FLx800™) at the respective excitation and emission wavelength of 560 and 590 nm. Resazurin becomes fluorescent under mitochondrial reduction and its emission directly correlates with the metabolic stability of the cells. The measured fluorescence values were corrected from the control samples containing DMSO and GI50 values were determined by plotting the fraction of metabolically active cells against the log of the drug concentration. All measurements were performed at least in triplicate.

HOP-92 = assay: Cell culture and GI50 determination (resazurin); assay type: cell-based; conditions: Homo sapiens; HOP-92, resazurin
Experimental: as §1, §2

KM12 = assay: Cell culture and GI50 determination (resazurin); assay type: cell-based; conditions: Homo sapiens
Experimental: as §1, §2

MDA-MB-231 = assay: Cell culture and GI50 determination (resazurin); assay type: cell-based; conditions: Homo sapiens, MDA-MB-231, 72 h incubation
Experimental: as §1, §2

protein kinases = assay: Selectivity profile with respect to protein kinases; assay type: binding; conditions: kinase groups TK, TKL, STE, CK1, AGC, CAMK, CMGC, other (Fig. 1)
Text: A selectivity profile of compound 2 with respect to protein kinases is depicted in Figure 1. The protein kinases are selected from tyrosine kinases (TK), tyrosine kinase-like kinases (TKL), STE-Group, Cell Kinases 1 (CK1), AGC-Group, Calmodulin/Calcium regulated kinases (CAMK), CMGC Group and other kinases. The larger the respective dot, the higher the binding affinity of the compound to the respective protein kinases. […] As per Kawasaki Y. and Freire E. in Drug Discovery Today, 2011 November; 16(21-22): 985-990, "[e]xtremely high affinity and selectivity are two of the most sought-after properties of drug molecules."

Cc1ccc(O)cc1-n1c(N)c(C(N)=O)c2nc3ccccc3nc21 [Compound 2, 2-Amino-1-(5-hydroxy-2-methylphenyl)-1H-pyrrolo[2,3-b]quinoxaline-3-carboxamide]
IC50 (EphB4): 11 nM | GI50 (A498): 5.88 µM | GI50 (HOP-92): 490 nM | GI50 (KM12): 1550 nM | GI50 (MDA-MB-231): 2640 nM | selectivity profile (binding affinity) with respect to protein kinases (protein kinases): selectivity towards tyrosine kinases (TK)
